Each structure is given as a SMILES string. pIC50: −log10 of the molar value. The source made the active and inactive calls. No rule for the calls is given here.

This experiment relates to L. donovani-infected THP-1 macrophages, intracellular amastigote imaging. Briefly: intracellular L. donovani amastigote inhibition, imaging, THP-1 host macrophages, host toxicity (AID 1159564).
The mark [1] stands for this setting: measured here: THP-1 host cell toxicity.
Where [2] appears, read: measured here: amastigotes per macrophage.

Consider `O=C(N1CCc2ccccc2CC1)C1(C(=O)N2CCC(n3c(=O)[nH]c4ncccc43)CC2)CC1`, for which the IC50 was > 50 µM (inactive). Also, the negative-log IC50 (pIC50) under setting [1] was less than 4.30. This molecule gave a negative logarithm of the IC50 (pIC50) under setting [2] of less than 4.30.
For the molecule `O=C1OCc2ccc(Nc3nccc(-c4cnn5ncccc45)n3)cc21`, the pIC50 is 7.80. The same molecule showed a negative logarithm of the IC50 (pIC50) under setting [1] of 8.10. Under setting [2], the negative-log IC50 (pIC50) is 7.89.
Consider `O=C(Nc1ccc(Br)cn1)c1ccc(Cn2cnc([N+](=O)[O-])n2)cc1`, for which the IC50 is > 50 µM (inactive). Under setting [1], this molecule had a pIC50 of less than 4.30. Further, the negative logarithm of the IC50 (pIC50) under setting [2] is less than 4.30.
As to `NC(=O)c1ccsc1NC(=O)c1ccc([N+](=O)[O-])s1`, the pIC50 was 5.80. The molecule also showed a pIC50 under setting [1] of 4.89. In addition, the negative-log IC50 (pIC50) under setting [2] is 5.89.
Take `OCC1CCCCN1c1cc(-c2ccccn2)nc(Nc2ccccc2)n1` (stereo unspecified): the negative-log IC50 (pIC50) is 5.89. Moreover, under setting [1], the pIC50 is 4.70. Besides, the negative logarithm of the IC50 (pIC50) under setting [2] was 6.00.
Regarding `Cc1ncsc1CNc1cnc(-c2ccc3c(c2)OCCO3)c(-c2cnn(C)c2)c1`, the negative logarithm of the IC50 (pIC50) was 4.80. Further, under setting [1], the pIC50 was 4.80. For the same molecule, under setting [2], the pIC50 is 4.89.
Turning to `O=C(NCc1nnc2n1CCCCC2)c1ccc(-c2ccc(F)cc2)o1`, the IC50 is > 50 µM (inactive). Moreover, the pIC50 under setting [1] is less than 4.30. Further, the pIC50 under setting [2] was less than 4.30.
As to `O=C(Nc1ccc(C(F)(F)F)cc1)NC1(C(=O)NCc2ccco2)CCCCC1`, the IC50 is > 50 µM (inactive). Moreover, the pIC50 under setting [1] is 4.49. This molecule also gave a pIC50 under setting [2] of less than 4.30.
With `CN(C)Cc1ccc(-c2ccc(S(=O)(=O)NCC3CCCO3)c(F)c2)cc1` (stereo unspecified), the IC50 is > 63 µM (inactive). This molecule had a pIC50 under setting [1] of 4.20. This molecule gave a negative logarithm of the IC50 (pIC50) under setting [2] of less than 4.20.
For `O=C1CCCCCC1(Cc1cnc[nH]1)c1ccc(Cl)cc1Cl` (stereo unspecified) the same measures were > 50 µM (inactive), less than 4.30 and 5.20.
`COc1cccc(CN(C)Cc2nc(N)c3c(C)c(C)sc3n2)c1`: the pIC50 is 5.30. The molecule also gave a negative-log IC50 (pIC50) under setting [1] of 4.49. This molecule also showed a pIC50 under setting [2] of 5.49.
Consider `Cc1ccc(C)c(CN2C(=O)NC3(CCc4ccccc43)C2=O)c1` (stereo unspecified), for which the IC50 is > 50 µM (inactive). Further, the pIC50 under setting [1] is less than 4.30. In addition, the pIC50 under setting [2] was 4.80.
Take `CC(C)n1c(-c2nonc2N)nc2cccc(OCCN3CCCC3)c21`: the pIC50 is 4.49. Under setting [1], this molecule had a pIC50 of 4.49. Under setting [2], this molecule showed a negative logarithm of the IC50 (pIC50) of 4.70.
Regarding `O=C(Nc1ncc([N+](=O)[O-])s1)C1CC1`, the IC50 is > 50 µM (inactive). Moreover, under setting [1], the negative logarithm of the IC50 (pIC50) is less than 4.30. The pIC50 under setting [2] was less than 4.30.
`Oc1c(-c2n[nH]c(Cc3ccc(Cl)cc3)n2)ncc2cccnc12`: the pIC50 was 5.89. The molecule also had a pIC50 under setting [1] of 4.70. Also, under setting [2], the pIC50 was 6.00.
Take `CC(C)(C)CC(=O)NCc1noc(COc2ccccc2)n1`: the IC50 is > 50 µM (inactive). Further, under setting [1], the negative-log IC50 (pIC50) is less than 4.30. Besides, the negative logarithm of the IC50 (pIC50) under setting [2] was less than 4.30.
Regarding `O=C(NCc1ccc(Cl)cc1)C1CN(C(=O)c2ccc(F)cc2)CCS1` (stereo unspecified), the IC50 was > 50 µM (inactive). Further, the pIC50 under setting [1] was less than 4.30. The negative logarithm of the IC50 (pIC50) under setting [2] was less than 4.30.
Regarding `O=C(NCCc1ccccc1Cl)c1cccn1-c1cccnc1`, the IC50 is > 50 µM (inactive). Under setting [1], this molecule gave a pIC50 of less than 4.30. The molecule also showed a pIC50 under setting [2] of less than 4.30.
`CCn1c(-c2nonc2N)nc2c([C@@H](C)O)ncc(O[C@H](CN)c3ccccc3)c21`: the negative logarithm of the IC50 (pIC50) is 5.30. Moreover, under setting [1], the pIC50 is 5.49. Under setting [2], this molecule gave a pIC50 of 5.49.
For the molecule `CN(C)c1ncc(-c2cncn2CCOc2ccc(Cl)cc2)cn1`, the IC50 is > 50 µM (inactive). This molecule also gave a negative-log IC50 (pIC50) under setting [1] of less than 4.30. In addition, under setting [2], the pIC50 is less than 4.30.
With `Fc1ccc(OC2CC(NCc3cccc4cn[nH]c34)C2)cc1C(F)(F)F` (stereo unspecified), the pIC50 is 5.10. Also, the pIC50 under setting [1] is 5.00. Under setting [2], this molecule showed a negative-log IC50 (pIC50) of 5.10.
Turning to `Cc1ccc(S(C)(=O)=O)cc1Nc1nccc(-c2sc(N)nc2-c2ccccc2)n1`, the negative logarithm of the IC50 (pIC50) is 5.30. The molecule also showed a negative-log IC50 (pIC50) under setting [1] of 4.70. The molecule further had a pIC50 under setting [2] of 5.60.
Take `CC(=O)Nc1cccc(Nc2ncnc3nc[nH]c23)c1`: the IC50 was > 50 µM (inactive). The pIC50 under setting [1] is 5.00. This molecule also gave a negative logarithm of the IC50 (pIC50) under setting [2] of 4.40.
For the molecule `O=C1COC(c2ccccc2)(c2ccccc2)CN1C1CCN(Cc2ccc(-n3ccnc3)cc2)CC1`, the pIC50 was 4.80. Under setting [1], this molecule showed a pIC50 of 4.80. The molecule further gave a pIC50 under setting [2] of 4.89.
As to `Cc1ccc2sc(NC(=O)Cn3cnc([N+](=O)[O-])n3)nc2c1`, the IC50 is > 50 µM (inactive). Under setting [1], the pIC50 was less than 4.30. Under setting [2], this molecule gave a negative-log IC50 (pIC50) of less than 4.30.
As for `COc1ccc(C2CC(c3ccccc3Cl)=NN2C(=O)CNC(=O)C2CCC2)cc1` (stereo unspecified), the IC50 was > 50 µM (inactive). Also, the pIC50 under setting [1] was less than 4.30. Also, the pIC50 under setting [2] is less than 4.30.
Take `O=C(CN(Cc1ccccn1)Cc1ccccn1)NCc1ccc2c(c1)OCO2`: the pIC50 was 5.10. Further, under setting [1], the negative logarithm of the IC50 (pIC50) was less than 4.10. The molecule also gave a pIC50 under setting [2] of 5.20.

As a reminder, the IC50 is the concentration that inhibits the measured activity by half. As a reminder, the pIC50 is −log10 of the IC50, conventionally taken in molar units.

These data come from PubChem BioAssay AID1159564 (GlaxoSmithKline (GSK), 2015).
